One compound from patent US20250304617A1, “COMPOUND, SALT OF COMPOUND, ANTIBODY MODIFICATION REAGENT, METHOD FOR PRODUCING MODIFIED ANTIBODY, AND MODIFIED ANTIBODY” (Kagoshima University, priority 2021, published 2025) can be followed below.

A short description of this data set: Examination of stability in DMSO (HPLC purity). In kind it is physicochemical. Conditions: 20 mg/mL in DMSO. The procedure: The compound A, the compound B, or the comparative example was dissolved in DMSO at a content of 20 mg/mL, allowed to stand at room temperature or −20° C. for a predetermined time, and analyzed by HPLC.
For the compound A, the compound B, and the comparative example, the ratio of the area of the main peak to the sum of the areas of all peaks (HPLC purity) is shown in Table 1.

With `[N-]=[N+]=NCCCCC1NONC(C(N)=O)CCCCC(NCCCC(=O)C(Cc2ccccc2)NC(=O)CCCC(=O)ON2C(=O)CCC2=O)C(=O)N1` (stereo not shown) [Comparative example, DSG-αZ34C, reference compound], the “HPLC purity (ratio of the area of the main peak to the sum of the areas of all peaks)” value amounted to 85% (room temperature, 0 Hours); 83% (room temperature, 22 Hours); 92% (−20° C., 0 Days); 85% (−20° C., 30 Days).
